Source: patent US20070049564A1 (Wyeth, priority 2005, published 2007)
Like-named read-outs stand apart in the source and are kept apart here.

What was measured:
E. coli GC 2231 = assay: MIC, broth microdilution; settings: Escherichia coli, GC2231, E. coli GC 2231
E. coli GC 2235 = assay: MIC, broth microdilution; settings: Escherichia coli, GC2235, E. coli GC 2235
E. coli GC 2233 = assay: MIC, broth microdilution; settings: Escherichia coli, GC2233, E. coli GC 2233
E. coli GC 2270 = assay: MIC, broth microdilution; settings: Escherichia coli, GC2270, E. coli GC 2270
E. coli GC 4560 = assay: MIC, broth microdilution; settings: Escherichia coli, GC4560, E. coli GC 4560
Protocol: (§1) Antimicrobial susceptibility testing. The in vitro activities of the antibiotics are determined by the broth microdilution method as recommended by the National Committee for Clinical Laboratory Standards (NCCLS) (1). Mueller-Hinton II broth (MHBII)(BBL Cockeysville, Md.) is the medium employed in the testing procedures. Microtiter plates containing serial dilutions of each antimicrobial agent are inoculated with each organism to yield the appropriate density (10^5 CFU/ml) in a 100 μl final volume. The plates are incubated for 18-22 hours at 35° C. in ambient air.
Representative compounds were first incubated in mouse serum for an hour prior to the in vitro testing against a panel of selected gram-positive and gram-negative bacteria strains. All compounds were also pre-incubated in water for an hour prior to testing as control. Representative compounds of Formula I were incubated in human serum prior to MIC determination.

E. coli GC 6465 = assay: MIC, broth microdilution; settings: Escherichia coli, GC6465, E. coli GC 6465
E. coli GC 1073 = assay: MIC, broth microdilution; settings: Escherichia coli, GC1073, E. coli GC 1073
S. typhimurium GC 2172 = assay: MIC, broth microdilution; settings: Salmonella enterica, TYPHIMURIUM, S. typhimurium GC 2172
S. aureus GC 6466 = assay: MIC, broth microdilution; settings: Staphylococcus aureus, GC6466, S. aureus GC 6466
S. aureus GC 6467 = assay: MIC, broth microdilution; settings: Staphylococcus aureus, GC6467, S. aureus GC 6467
Protocol: as §1
Representative compounds were first incubated in mouse serum for an hour prior to the in vitro testing against a panel of selected gram-positive and gram-negative bacteria strains. All compounds were also pre-incubated in water for an hour prior to testing as control.

S. aureus GC 1079 = assay: MIC, broth microdilution; settings: Staphylococcus aureus, GC1079, S. aureus GC 1079
S. aureus GC 4536 = assay: MIC, broth microdilution; settings: Staphylococcus aureus, GC4536, S. aureus GC 4536
S. aureus GC 2216 = assay: MIC, broth microdilution; settings: Staphylococcus aureus, GC2216, S. aureus GC 2216
S. aureus GC 6469 = assay: MIC, broth microdilution; settings: Staphylococcus aureus, GC6469, S. aureus GC 6469
E. faecalis GC 2242 = assay: MIC, broth microdilution; settings: Enterococcus faecalis, GC2242, E. faecalis GC 2242
E. faecium GC 4556 = assay: MIC, broth microdilution; settings: Enterococcus faecium, GC4556, E. faecium GC 4556
E. faecium GC 2243 = assay: MIC, broth microdilution; settings: Enterococcus faecium, GC2243, E. faecium GC 2243
c. albicans GC 3066 = assay: MIC, broth microdilution
E. coli = assay: Range of MIC for E. coli strains; settings: Escherichia coli
Staph. = assay: Range of MIC for Staph. strains, including MRSA; settings: Staphylococcus aureus, MRSA
[1] = c. albicans GC 3066, Water pre-incubation
[2] = 20 h, read-out: Range of MIC, E. coli (Mouse Serum)
[3] = read-out: Minimum inhibitory concentration (MIC), E. coli (mouse serum)
[4] = read-out: Minimum inhibitory concentration (MIC), E. coli (water)
[5] = read-out: Range of MIC, E. coli (Water)
[6] = read-out: Minimum inhibitory concentration (MIC), Staph. (mouse serum)
[7] = read-out: Minimum inhibitory concentration (MIC), Staph. (water)
[8] = read-out: Range of MIC, Staph (Mouse Serum)
[9] = read-out: Range of MIC, Staph (Water)

Measured: MIC

CCCCN(CC(=O)Nc1cc(N(C)C)c2c(c1O)C(=O)C1=C(O)[C@]3(O)C(=O)C(C(N)=O)=C(O)[C@@H](N(C)C)C3CC1C2)C(=O)OCOC(=O)c1ccc(OC)cc1 (stereo partly drawn) [Example 2, ({[(2-{[(7S,10aS)-9-(aminocarbonyl)-4,7-bis(dimethylamino)-1,8,10a,11-tetrahydroxy-10,12-dioxo-5,5a,6,6a,7,10,10a,12-octahydrotetracen-2-yl]amino}-2-oxoethyl)(butyl)amino]carbonyl}oxy)methyl 4-methoxybenzoate]
8 µg/mL: E. coli GC 6465; Mouse Serum pre-incubation | S. aureus GC 6467; Water pre-incubation | S. aureus GC 1079; Mouse Serum pre-incubation | S. aureus GC 1079; Water pre-incubation | E. faecium GC 4556; Water pre-incubation
0.25 µg/mL: E. coli GC 4560; Mouse Serum pre-incubation
>64 UG/ML: c. albicans GC 3066; [1]
32 to 64 µg/mL: E. coli; [4] | E. coli; [5]
1 to 8 µg/mL: Staph.; [6] | Staph.; [8]
64 µg/mL: E. coli GC 2231; Water pre-incubation | E. coli GC 2235; Water pre-incubation | E. coli GC 2233; Water pre-incubation | E. coli GC 2270; Water pre-incubation | E. coli GC 6465; Water pre-incubation | E. coli GC 1073; Water pre-incubation
2 to 8 µg/mL: Staph.; [7] | Staph.; [9]
1 to 4 µg/mL: E. coli; [2] | E. coli; [3]
1 µg/mL: E. coli GC 2233; Mouse Serum pre-incubation | E. coli GC 2270; Mouse Serum pre-incubation | S. aureus GC 6466; Mouse Serum pre-incubation | E. faecium GC 2243; Mouse Serum pre-incubation
4 µg/mL: E. coli GC 2231; Mouse Serum pre-incubation | E. coli GC 4560; Water pre-incubation | E. coli GC 1073; Mouse Serum pre-incubation | S. aureus GC 6467; Mouse Serum pre-incubation | S. aureus GC 4536; Water pre-incubation | S. aureus GC 2216; Water pre-incubation | S. aureus GC 6469; Water pre-incubation | E. faecalis GC 2242; Mouse Serum pre-incubation | E. faecalis GC 2242; Water pre-incubation | E. faecium GC 4556; Mouse Serum pre-incubation | E. faecium GC 2243; Water pre-incubation
> 64 µg/mL: S. typhimurium GC 2172; Mouse Serum pre-incubation | S. typhimurium GC 2172; Water pre-incubation | c. albicans GC 3066; Candida albicans, GC3066
2 µg/mL: E. coli GC 2235; Mouse Serum pre-incubation | S. aureus GC 6466; Water pre-incubation | S. aureus GC 4536; Mouse Serum pre-incubation | S. aureus GC 2216; Mouse Serum pre-incubation | S. aureus GC 6469; Mouse Serum pre-incubation

CCCCN(CC(=O)Nc1cc(N(C)C)c2c(c1O)C(=O)C1=C(O)[C@]3(O)C(=O)C(C(N)=O)=C(O)[C@@H](N(C)C)C3CC1C2)C(=O)OCOC(=O)c1ccc(C)cc1 (stereo partly drawn) [Example 3, ({[(2-{[(7S,10aS)-9-(aminocarbonyl)-4,7-bis(dimethylamino)-1,8,10a,11-tetrahydroxy-10,12-dioxo-5,5a,6,6a,7,10,10a,12-octahydrotetracen-2-yl]amino}-2-oxoethyl)(butyl)amino]carbonyl}oxy)methyl 4-methylbenzoate]
0.5 µg/mL: E. coli GC 4560; Mouse Serum pre-incubation
> 64 µg/mL: E. coli GC 2231; Water pre-incubation | E. coli GC 2235; Water pre-incubation | E. coli GC 2233; Water pre-incubation | E. coli GC 2270; Water pre-incubation | E. coli GC 6465; Water pre-incubation | E. coli GC 1073; Water pre-incubation | S. typhimurium GC 2172; Water pre-incubation | c. albicans GC 3066; Candida albicans, GC3066 | E. coli; [4] | E. coli; [5]
1 µg/mL: E. coli GC 2235; Mouse Serum pre-incubation | E. coli GC 2233; Mouse Serum pre-incubation | E. coli GC 2270; Mouse Serum pre-incubation | S. aureus GC 6466; Mouse Serum pre-incubation | S. aureus GC 2216; Mouse Serum pre-incubation | E. faecium GC 2243; Mouse Serum pre-incubation
1 to 4 µg/mL: Staph.; [6] | Staph.; [8]
1 to 2 µg/mL: E. coli; [2] | E. coli; [3]
2 µg/mL: E. coli GC 2231; Mouse Serum pre-incubation | E. coli GC 1073; Mouse Serum pre-incubation | S. aureus GC 1079; Mouse Serum pre-incubation | S. aureus GC 4536; Mouse Serum pre-incubation | E. faecalis GC 2242; Mouse Serum pre-incubation | E. faecium GC 4556; Mouse Serum pre-incubation
32 µg/mL: E. coli GC 4560; Water pre-incubation | S. aureus GC 6467; Water pre-incubation | S. aureus GC 1079; Water pre-incubation | S. aureus GC 6469; Water pre-incubation
4 µg/mL: S. aureus GC 6466; Water pre-incubation | S. aureus GC 6467; Mouse Serum pre-incubation | S. aureus GC 4536; Water pre-incubation | S. aureus GC 2216; Water pre-incubation | S. aureus GC 6469; Mouse Serum pre-incubation | E. faecium GC 2243; Water pre-incubation
8 µg/mL: E. coli GC 6465; Mouse Serum pre-incubation | S. typhimurium GC 2172; Mouse Serum pre-incubation
4 to 32 µg/mL: Staph.; [7] | Staph.; [9]
16 µg/mL: E. faecalis GC 2242; Water pre-incubation | E. faecium GC 4556; Water pre-incubation
>64 UG/ML: c. albicans GC 3066; [1]
